Measurements as given in patent US7671061B2, “Methods and compositions for treating pain” (Hydra Biosciences, Inc., priority 2005, dated 2010).
pIC50: −log10 of the molar value.

target: T1, hTRPA1 (Homo sapiens, UniProt O75762, K186N); test: High throughput Ca2+ fluorescence (Fluo4) assay, AITC stimulation; type: cell-based; settings: Table 1; read-out: hTRPA1 Fluo4 IC50
T1 construct: expressed in transfected cells; host or cells: HEK293/TREx (Invitrogen), induced with tetracycline
Outline: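 Tetracycline-induced HEK293/TREx cells loaded with 1 μM Fluo4/AM for 60 min at room temperature. Compound added for 2 min after a 4-frame baseline, then AITC; fluorescence followed ~3 min.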

T1 sequence (O75762 whole entry K186N): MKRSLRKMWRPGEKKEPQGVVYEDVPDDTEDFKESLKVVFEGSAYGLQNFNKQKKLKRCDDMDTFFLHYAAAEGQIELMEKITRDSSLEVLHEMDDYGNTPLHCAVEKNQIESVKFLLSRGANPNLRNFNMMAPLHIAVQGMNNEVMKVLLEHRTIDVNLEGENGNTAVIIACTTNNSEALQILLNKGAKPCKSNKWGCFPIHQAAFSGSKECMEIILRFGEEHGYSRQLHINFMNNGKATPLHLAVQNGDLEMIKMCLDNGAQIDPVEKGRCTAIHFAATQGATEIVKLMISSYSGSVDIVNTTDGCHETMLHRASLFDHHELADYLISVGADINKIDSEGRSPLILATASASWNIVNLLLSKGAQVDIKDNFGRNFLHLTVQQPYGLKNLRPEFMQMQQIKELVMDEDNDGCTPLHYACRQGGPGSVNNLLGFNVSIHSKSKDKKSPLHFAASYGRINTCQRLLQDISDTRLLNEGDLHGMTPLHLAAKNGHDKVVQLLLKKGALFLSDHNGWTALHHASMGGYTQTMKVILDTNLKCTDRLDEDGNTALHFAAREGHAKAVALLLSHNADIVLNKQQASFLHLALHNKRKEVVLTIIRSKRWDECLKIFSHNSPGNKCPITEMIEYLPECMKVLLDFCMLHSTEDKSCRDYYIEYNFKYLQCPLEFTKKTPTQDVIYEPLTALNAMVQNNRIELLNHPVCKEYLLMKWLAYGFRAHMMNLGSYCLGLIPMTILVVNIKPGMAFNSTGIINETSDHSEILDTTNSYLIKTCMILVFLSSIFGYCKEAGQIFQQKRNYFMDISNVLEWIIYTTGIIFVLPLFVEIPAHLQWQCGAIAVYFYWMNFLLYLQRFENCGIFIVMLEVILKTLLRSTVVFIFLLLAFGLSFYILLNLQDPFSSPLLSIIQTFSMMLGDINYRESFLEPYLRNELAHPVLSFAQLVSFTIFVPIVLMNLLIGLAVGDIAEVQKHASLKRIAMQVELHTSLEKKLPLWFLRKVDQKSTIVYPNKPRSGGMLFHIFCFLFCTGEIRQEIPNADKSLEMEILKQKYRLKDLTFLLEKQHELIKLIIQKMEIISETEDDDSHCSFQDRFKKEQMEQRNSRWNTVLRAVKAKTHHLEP

pIC50	SMILES
≤ 4.52	CC1=C(C(=O)Nc2ccccc2)C(c2ccccc2)NC(=S)N1 (stereo not shown)
< 5.00	COC(=O)C1=C(C)N(C)C(=O)N(C)C1c1cccc([N+](=O)[O-])c1 (stereo not shown)
< 5.00	CCCC1=C(C(=O)OCC)C(c2ccc(Cl)cc2Cl)NC(=O)N1 (stereo not shown)
< 5.00	CCCOC(=O)C1=C(C)NC(=O)NC1c1ccc(N(CC)CC)cc1 (stereo not shown)
< 5.00	CC1=C(C(=O)OC2CCCC2)C(c2ccccc2Cl)NC(=O)N1C (stereo not shown)
< 5.00	CC1=C(C(=O)OC2CCC(C)CC2)C(c2ccc(N(C)C)cc2)NC(=O)N1 (stereo not shown)
< 5.00	CC1=C(C(=O)N2CCOCC2)C(c2ccc(F)cc2)NC(=O)N1 (stereo not shown)
< 5.00	CCOC(=O)C1=C(CN2CCN(C)CC2)NC(=O)NC1c1ccc(Cl)cc1 (stereo not shown)
< 5.00	CC1=C(C(=O)OC2CCCCCC2)C(c2cccc(C)c2)NC(=O)N1 (stereo not shown)
< 5.00	C=CCOC(=O)C1=C(C)NC(=O)NC1c1c(Cl)cccc1Cl (stereo not shown)
< 5.00	COCCOC(=O)C1=C(C)NC(=S)NC1c1ccc(Br)cc1 (stereo not shown)
< 5.00	COC(=O)C1=C(CN2CCc3ccccc32)NC(=O)NC1c1cc(C)ccc1C (stereo not shown)
< 5.00	CCOC(=O)C1=C(C)N(C)C(=O)NC1c1cccc(Cl)c1Cl (stereo not shown)
< 5.00	CC1=C(C(=O)N2CCOCC2)C(c2ccc(Cl)cc2)NC(=O)N1 (stereo not shown)
< 5.00	CCN(CC)C(=O)C1=C(C)NC(=S)NC1c1ccccc1F (stereo not shown)
< 5.00	CCN1C(=O)NC(c2ccccc2Br)C(C(=O)OC)=C1C (stereo not shown)
< 5.00	CCC(C)OC(=O)C1=C(C)NC(=O)NC1c1ccc(F)c(Br)c1 (stereo not shown)
< 5.00	COc1ccc(C2NC(=O)N(C)C(C)=C2C(=O)Nc2ccccc2C)cc1 (stereo not shown)
< 5.00	CCOC(=O)C1=C(C)NC(=S)NC1c1cc(C)ccc1C (stereo not shown)

pIC50	SMILES
≥ 5.00	C=CCOC(=O)C1=C(C)NC(=S)NC1c1cccc(OC)c1 (stereo not shown)
< 5.00	COc1cccc(C2NC(=S)NC(C)=C2C(=O)N(C)C)c1OC (stereo not shown)
< 5.00	CCN(CC)C(=O)C1=C(C)NC(=S)NC1c1cc(OC)ccc1OC (stereo not shown)
< 5.00	CC1=C(C(=O)OC(C)(C)C)C(c2ccc(Br)cc2)NC(=O)N1 (stereo not shown)
≥ 5.00	CCOC(=O)C1=C(CN2CCc3ccccc32)NC(=O)NC1c1ccc(Cl)cc1 (stereo not shown)
< 5.00	CC1=C(C(=O)OC2CCCCCC2)C(c2cccc(Cl)c2)NC(=O)N1 (stereo not shown)
< 5.00	CCN(CC)C(=O)C1=C(C)NC(=S)NC1c1ccccc1 (stereo not shown)
< 5.00	COc1cc(Br)cc(C2NC(=S)NC(C)=C2C(=O)N(C)C)c1OC (stereo not shown)
< 5.00	COC(=O)C1=C(C)N(C)C(=O)NC1c1c(F)cccc1Cl (stereo not shown)
≥ 5.30	C=CCOC(=O)C1=C(C)NC(=O)NC1c1ccc(C)cc1 (stereo not shown)
< 5.00	CC1=C(C(=O)OCc2ccc(C)cc2)C(c2ccc(N(C)C)cc2)NC(=O)N1 (stereo not shown)
< 5.00	COC(=O)C1=C(C)N(C)C(=O)NC1c1cccc(Cl)c1 (stereo not shown)
≥ 5.00	CC1=C(C(=O)OCC(C)C)C(c2c(F)cccc2Cl)NC(=O)N1C (stereo not shown)
< 5.00	CC1=C(C(=O)Nc2ccc(Br)cc2)C(c2ccccc2)NC(=O)N1C (stereo not shown)
< 5.00	C=CCOC(=O)C1=C(C)NC(=O)NC1c1ccc(F)cc1 (stereo not shown)
< 5.00	CCOC(=O)C1=C(CN2CCc3ccccc32)NC(=O)NC1c1cccc([N+](=O)[O-])c1 (stereo not shown)
< 5.00	CCN(CC)C(=O)C1=C(C)NC(=O)NC1c1ccc(OC)c(Cl)c1 (stereo not shown)
< 5.00	CCOC(=O)C1=C(C)NC(=O)NC1c1ccc(O)cc1 (stereo not shown)
≥ 5.30	CC1=C(C(=O)OCC(C)C)C(c2ccccc2C(F)(F)F)NC(=O)N1 (stereo not shown)

same assay, conditions: Table 2; read-out: hTRPA1 Fluor IC50

pIC50	SMILES
< 5.00	CC(C)NC(=O)c1ccccc1NC(=O)Cn1cnc2c1c(=O)n(C)c(=O)n2C [Compound 385]
≥ 5.00	Cn1c(=O)c2c(ncn2CC(=O)NCCOc2ccc(C(C)(C)C)cc2)n(C)c1=O [Compound 320]
< 5.00	CSc1ccccc1NC(=O)Cn1cnc2c1c(=O)n(C)c(=O)n2C [Compound 316]
< 5.00	CC(C(=O)Nc1ccccc1F)n1cnc2c1c(=O)n(C)c(=O)n2C (stereo not shown) [Compound 334]
≥ 5.00	CC(=O)c1ccc(NC(=O)Cn2cnc3c2c(=O)n(C)c(=O)n3C)cc1 [Compound 360]
< 5.00	Cc1nn(Cc2ccccc2)c(C)c1CNC(=O)Cn1cnc2c1c(=O)n(C)c(=O)n2C [Compound 339]
≤ 4.70	Cc1ccc(Cl)cc1NC(=O)Cn1cnc2c1c(=O)n(C)c(=O)n2C [Compound 374]
< 5.00	COc1ccccc1NC(=O)C(C)n1cnc2c1c(=O)n(C)c(=O)n2C (stereo not shown) [Compound 303]
≤ 4.70	CN(CCOc1ccccc1)C(=O)Cn1cnc2c1c(=O)n(C)c(=O)n2C [Compound 324]
< 5.00	Cc1cc(C)c(-c2csc(NC(=O)Cn3cnc4c3c(=O)n(C)c(=O)n4C)n2)c(C)c1 [Compound 272]
< 5.00	Cc1ccccc1NC(=O)Cn1cnc2c1c(=O)n(C)c(=O)n2C [Compound 358]
< 5.00	Cc1c(C#N)c(NC(=O)Cn2cnc3c2c(=O)n(C)c(=O)n3C)n(Cc2ccccc2)c1C [Compound 356]
< 5.00	CCc1cccc(C)c1NC(=O)Cn1cnc2c1c(=O)n(C)c(=O)n2C [Compound 359]
< 5.00	Cn1c(=O)c2c(ncn2CC(=O)NC(c2ccc(F)cc2)c2cccs2)n(C)c1=O (stereo not shown) [Compound 343]
< 5.00	Cn1c(=O)c2c(ncn2CC(=O)NCC(c2ccc(F)cc2)N2CCOCC2)n(C)c1=O (stereo not shown) [Compound 317]
≥ 5.00	Cn1c(=O)c2c(ncn2CC(=O)Nc2cccc([N+](=O)[O-])c2)n(C)c1=O [Compound 223]
< 5.00	Cc1cc(Cl)ccc1NC(=O)Cn1cnc2c1c(=O)n(C)c(=O)n2C [Compound 298]
< 5.00	CC1CCCCC1NC(=O)Cn1cnc2c1c(=O)n(C)c(=O)n2C (stereo not shown) [Compound 279]
< 5.00	Cn1c(=O)c2c(ncn2CC(=O)NC(CN2CCOCC2)c2ccccc2)n(C)c1=O (stereo not shown) [Compound 357]
≤ 4.52	Cc1cc([N+](=O)[O-])ccc1NC(=O)Cn1cnc2c1c(=O)n(C)c(=O)n2C [Compound 227]

target: T1, hTRPA1; test: TRPA1 patch clamp (perforated patch, AITC-activated current); type: cell-based; settings: Table 2; inward current; read-out: hTRPA1 Patch Inwd IC50
Description: Patch clamp experiments permit the detection of currents through the TRPA1 channel in the cell line described above. To permit recording of current at a stable level and prevent the “rundown” observed by other labs, it is necessary to use the perforated patch technique, which prevents dialysis of the cytoplasm with the pipette solution. In normal whole-cell patch clamp recordings, a glass electrode is brought into contact with a single cell and a high-resistance (gigaohm) seal is established with the cell membrane. The membrane is then ruptured to achieve the whole-cell configuration, permitting control of the voltage of the cell membrane and measurement of currents flowing across the membrane using the amplifier attached to the electrode and resulting in the replacement of cytoplasm with the pipette solution. In contrast, in the perforated patch mode, an antibiotic, amphotericin, is present in the pipette solution and diffuses into contact with the cell after the seal is achieved, over the course of several minutes. The amphotericin forms ion-permeable pores in the membrane under the pipette, permitting passage of some ions but maintaining most native cytosolic components. A perfusion system permits control of the extracellular solution, including the addition of blockers and activators of the current. The current can be activated by addition of 5 μM AITC to the solution. […] In some cases, cells were grown in low density overnight on glass coverslips. Patch clamp recordings were made in the whole-cell mode with a holding potential of −40 mV. Every 5 seconds, a voltage ramp was applied from −120 to +100 mV, 400 ms in duration. Currents elicited were quantified at −80 mV and +80 mV. […] The external solution consisted of 150 mM NaCl, 4.5 mM KCl, 3 mM MgCl2, 10 mM HEPES, […], 1 mM EGTA, pH 7.4. Upon addition of AITC, TRPA1 current was induced only in TRPA1-expressing cells and not in parental HEK293 TREx cells. Removal of the AITC stimulus causes most of the current to go away. Potential blockers were tested for ability to block both inward and outward currents in the continued presence of AITC.

pIC50	SMILES
≥ 5.00	Cn1c(=O)c2c(ncn2CC(=O)NCCc2ccc(C#N)cc2)n(C)c1=O [Compound 409, N-[2-(4-Cyanophenyl)-ethyl]-2-(1,3-dimethyl-2,6-dioxo-1,2,3,6-tetrahydro-purin-7-yl)-acetamide]
≥ 6.00	Cn1c(=O)c2c(ncn2CC(=O)NCCc2ccc(Cl)c(Cl)c2)n(C)c1=O [Compound 396, N-[2-(3,4-Dichlorophenyl)-ethyl]-2-(1,3-dimethyl-2,6-dioxo-1,2,3,6-tetrahydro-purin-7-yl)-acetamide]
< 5.00	CC(C)c1ccc(NC(=O)C(C)(C)n2cnc3c2c(=O)n(C)c(=O)n3C)cc1 [Compound 387, 2-(1,3-dimethyl-2,6-dioxo-1,2,3,6-tetrahydropurin-7-yl)-N-(4-isopropylphenyl)-2-methylpropanamide]
≥ 5.00	CC(C)c1ccc(NC(=O)Cn2cnc3[nH]c(=O)n(C)c(=O)c32)cc1 [Compound 391, N-(4-isopropylphenyl)-2-(1-methyl-2,6-dioxo-1,2,3,6-tetrahydropurin-7-yl)acetamide]
≥ 5.30	COc1ccc(Cl)cc1NC(=O)Cn1cnc2c1c(=O)n(C)c(=O)n2C [Compound 285]
≥ 5.00	CC(C)c1ccc(NC(=O)Cn2cnc3[nH]c(=O)[nH]c(=O)c32)cc1 [Compound 399, 2-(2,6-dioxo-1,2,3,6-tetrahydropurin-7-yl)-N-(4-isopropylphenyl)acetamide]
≥ 5.30	Cn1c(=O)[nH]c(=O)c2c1ncn2CC(=O)Nc1ccc(C2CCCC2)cc1 [Compound 394, N-(4-cyclopentylphenyl)-2-(3-methyl-2,6-dioxo-1,2,3,6-tetrahydropurin-7-yl)acetamide]
< 5.00	Cn1c(=O)c2c(ncn2CC(=O)NCc2ccccc2Cl)n(C)c1=O [Compound 236]
≥ 5.00	Cn1c(=O)c2c(ncn2CC(=O)NCCc2ccccc2Cl)n(C)c1=O [Compound 405, N-(2-chlorophenethyl)-2-(1,3-dimethyl-2,6-dioxo-1,2,3,6-tetrahydropurin-7-yl)acetamide]
≥ 5.00	Cc1ccccc1CCNC(=O)Cn1cnc2c1c(=O)n(C)c(=O)n2C [Compound 406, N-(2-methylphenethyl)-2-(1,3-dimethyl-2,6-dioxo-1,2,3,6-tetrahydropurin-7-yl)acetamide]
≥ 6.30	Cn1c(=O)c2c(ncn2CC(=O)Nc2ccc(C3CCCC3)cc2)n(C)c1=O [Compound 395, N-(4-cyclopentylphenyl)-2-(1,3-dimethyl-2,6-dioxo-1,2,3,6-tetrahydropurin-7-yl)acetamide]

same assay, conditions: hTRPA1 Patch Inwd IC50 (nM), Table 2; inward current

SMILES	IC50 [nM]
COc1ccc(CCNC(=O)Cn2cnc3c2c(=O)n(C)c(=O)n3C)cc1OC [Compound 390]	≤ 10000
